Reference: PubChem BioAssay (NCI)
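Where inhibition never reached the appropriate level, the endpoint shown equals the highest concentration tested. Otherwise, values were interpolated linearly from a five-concentration, 48-hour dose response in 96-well plates. GI50 marks 50% less growth. TGI: total growth inhibition.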

Experiments:
Test in all cases: NCI-60 cell line screen, 48 h
OVCAR-4 ovarian = system: OVCAR-4 ovarian
RXF 393 renal = system: RXF 393 renal
SK-MEL-28 melanoma = system: SK-MEL-28 melanoma
MDA-MB-435 = system: MDA-MB-435
HOP-62 NSCLC = system: HOP-62 NSCLC
SK-OV-3 ovarian = system: SK-OV-3 ovarian
SW-620 colon = system: SW-620 colon
IGROV1 ovarian = system: IGROV1 ovarian
A498 renal = system: A498 renal
MALME-3M melanoma = system: MALME-3M melanoma

Compound | GI50 (OVCAR-4 ovarian) [µM] | TGI (OVCAR-4 ovarian) [µM] | GI50 (RXF 393 renal) [µM] | TGI (RXF 393 renal) [µM] | GI50 (SK-MEL-28 melanoma) [µM] | TGI (SK-MEL-28 melanoma) [µM] | GI50 (MDA-MB-435) [µM] | TGI (MDA-MB-435) [µM] | GI50 (HOP-62 NSCLC) [µM] | TGI (HOP-62 NSCLC) [µM] | GI50 (SK-OV-3 ovarian) [µM] | TGI (SK-OV-3 ovarian) [µM] | GI50 (SW-620 colon) [µM] | TGI (SW-620 colon) [µM] | TGI (IGROV1 ovarian) [µM] | TGI (A498 renal) [µM] | TGI (MALME-3M melanoma) [µM] | GI50 (A498 renal) [µM] | GI50 (MALME-3M melanoma) [µM] | GI50 (IGROV1 ovarian) [µM]
NC(=NC1CCCCCC1)c1ccc(N2CCN(c3ccc(C(N)=NC4CCCCCC4)cc3)CC2)cc1 | 26.6 | > 50 | 9.99 | 35.6 | 10.7 | 22.4 | 7.85 | 26.1 | 8.48 | 22.6 | 15.7 | 44.9 | 10.8 | > 50 | – | – | – | – | – | –
c1cncc(C(Nc2cccc3cccnc23)Nc2cccc3cccnc23)c1 | – | – | – | > 100 | – | – | – | > 100 | – | > 100 | – | > 100 | – | > 100 | > 100 | – | – | – | – | –
Cc1c(C(=O)CC(=O)C(=O)Nc2cccc(C(F)(F)F)c2)[n+](=O)c2ccccc2n1[O-] | – | 13.3 | – | 39.5 | – | 27.2 | – | – | – | 57.6 | – | 50.2 | – | 12.2 | 9.34 | 35.8 | 13.3 | – | – | –
COC1CC(OS(=O)(=O)c2ccc(C)cc2)C(OS(=O)(=O)c2ccc(C)cc2)C(COS(=O)(=O)c2ccc(C)cc2)O1 (configuration not stated) | – | 1.12 | – | 4.64 | – | 13.4 | – | – | – | 5.09 | – | 8.62 | – | 57.7 | 17.2 | – | 8.57 | – | – | –
CC[O-].CC[O-].O=Nc1ccc2cc([O-])ccc2c1.O=Nc1ccc2cc([O-])ccc2c1.[Ti+4] | 1.76 | 3.2 | – | – | 1.81 | 3.4 | – | – | 3.3 | 10.5 | 14.6 | 20 | 1.97 | 4.06 | – | 27.3 | 3.06 | 9.01 | 1.69 | –
CC(C)(C)C(=O)C(c1ccc(-c2cscn2)cc1)c1ccc(-c2cscn2)cc1 | – | 9.54 | – | 54.7 | – | > 100 | – | – | – | 40.6 | – | 65.3 | – | > 100 | > 100 | 65.8 | > 100 | – | – | –
CC1OC(OC2C(Oc3cc(O)c4c(=O)cc(-c5ccc(O)cc5)oc4c3)OC(CO)C(O)C2O)C(O)C(O)C1O (configuration not stated) | – | > 100 | – | – | – | > 100 | – | – | – | > 100 | – | > 100 | – | – | > 100 | > 100 | > 100 | – | – | –
O=C(Nc1ccc(Nc2ccncc2)cc1)c1ccc(Nc2ccnc3ccc([N+](=O)[O-])cc23)cc1 | > 100 | > 100 | – | – | 63.8 | > 100 | > 100 | > 100 | > 100 | > 100 | > 100 | > 100 | > 100 | > 100 | – | > 100 | – | > 100 | – | –
CCOC(=O)NC(=O)c1cn(CCCOC(=O)CCCCCCCCC(=O)OCCCn2cc(C(=O)NC(=O)OCC)c(=O)[nH]c2=O)c(=O)[nH]c1=O | – | 30.7 | – | – | – | 64.8 | – | – | – | > 100 | – | > 100 | – | 60.3 | 58.1 | 67.5 | – | – | – | –
COc1ccc(/C=C(\C#N)c2cc(OC)c3c(c2)OCO3)cc1 | 0.0617 | > 66.6 | < 0.01 | 30.6 | 0.0117 | 44.8 | < 0.01 | – | < 0.0125 | 24.1 | < 0.0111 | 0.458 | < 0.01 | > 100 | 32 | 0.193 | – | < 0.01 | – | 0.0212
O[C@]12CCCC[C@H]1CCC2 | – | > 100 | – | > 100 | – | > 100 | – | – | – | > 100 | – | > 100 | – | > 100 | > 100 | > 100 | > 100 | – | – | –
Cc1ccc(C2=Nc3ccccc3NC(=O)C2)cc1 | – | > 100 | – | > 100 | – | > 100 | – | – | – | > 100 | – | > 100 | – | > 100 | > 100 | > 100 | > 100 | – | – | –
COc1ccc(C(=O)/C=C/c2cc(C(=O)c3cc(OC)c(OC)c(OC)c3)ccc2OC)cc1 | – | – | 14.7 | > 100 | – | – | – | – | 11.8 | 94.5 | > 100 | > 100 | 3.07 | > 100 | > 100 | > 100 | – | 7.33 | – | 8.82
Cc1c(Cl)cccc1NC(=O)c1sc2nc3c(cc2c1N)CCCCCC3 | 0.936 | 15.2 | 0.133 | 3.5 | 4.59 | > 50 | 0.0761 | 0.251 | 0.326 | 19.8 | 0.279 | 26.5 | 0.175 | > 50 | > 50 | 9.16 | – | 0.202 | – | 0.426
COc1cc2c(cc1OC)[C@@H](C(O)c1ccccc1)NCC2 (some centres not stated) | – | > 100 | – | > 100 | – | – | – | – | – | > 100 | – | > 100 | – | > 100 | > 100 | > 100 | > 100 | – | – | –
O=Cc1[nH]c2ccccc2c1Br | – | > 100 | – | 67.8 | – | 59.4 | – | – | – | 40.6 | – | 44.9 | – | > 100 | 70.2 | 33.6 | 45.1 | – | – | –
Cc1ccc(NC2=C(Sc3ccc(Cl)cc3)C(=O)N(Cc3ccccc3)C2=O)cc1Cl | 4.82 | 18 | – | – | 28.7 | > 100 | 22 | > 100 | 3.14 | 10.4 | 18.2 | 45.7 | 6.01 | 36.2 | 15.3 | 17.1 | – | 4.8 | – | 3.98
CCCCC(=O)[O-].N.N.N.N.N.[Co+3].[O-][Cl+3]([O-])([O-])[O-] | > 100 | > 100 | – | – | > 100 | > 100 | – | – | > 100 | > 100 | > 100 | > 100 | > 100 | > 100 | > 100 | > 100 | > 100 | > 100 | > 100 | > 100
